Measurements from paper PMC8153077, “Inhibiting quinolone biosynthesis of Burkholderia” (Chemical Science, 2021).

Key:
[1] = target: T1, HmqD (Burkholderia ambifaria, UniProt Q0B3G0); assay: live-cell activity-based labelling with click chemistry and in-gel fluorescence; proteomic identification of the modified site
T1 construct: gene Bamb_5766; recombinant HmqD overexpressed in live E. coli BL21
From the text: live-cell activity-based labelling with click chemistry and in-gel fluorescence; proteomic identification of the modified site on HmqD | identified as site of modification by probe CAA only the active site cysteine C114

[2] = target: T1, HmqD; assay: competitive live-cell activity-based labelling against probe CAA, in-gel fluorescence

T1 sequence (Q0B3G0 entry or part of it): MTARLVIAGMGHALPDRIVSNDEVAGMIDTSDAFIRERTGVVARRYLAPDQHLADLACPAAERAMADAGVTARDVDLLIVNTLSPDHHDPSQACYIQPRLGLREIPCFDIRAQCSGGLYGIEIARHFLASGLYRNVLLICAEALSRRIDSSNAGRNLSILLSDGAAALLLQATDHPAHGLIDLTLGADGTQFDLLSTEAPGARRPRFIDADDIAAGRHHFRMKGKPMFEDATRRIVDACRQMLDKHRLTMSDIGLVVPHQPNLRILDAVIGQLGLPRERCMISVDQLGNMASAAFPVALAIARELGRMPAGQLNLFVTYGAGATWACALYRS

Row | SMILES | live-cell activity-based labelling with click chemistry and in-gel fluorescence; [1] | IC50 [2]
1 | C#CCCC(=O)NCc1ccc(N)c(C(=O)CCl)c1 [CAA] | 15 nM | 
2 | O=C(CCl)c1ccccc1 [compound 9] |  | 200 nM
3 | Nc1ccc(I)cc1C(=O)CCl [compound 4] |  | 100 nM
4 | Nc1cc2c(cc1C(=O)CCl)OCCO2 [compound 7] |  | 200 nM
